In the supplement of paper PMC13380429:

Assays:
Conditions in all cases: 72 h
Vero E6 [1] = assay: cell viability relative to DMSO; higher = less toxic
HepG2 [2] = assay: as above
U2OS [3] = assay: as above
Caco-2 [4] = assay: as above
Calu-3 [5] = assay: as above
Vero E6 [6] = assay: relative viability EC50 (midpoint between 100% and the lowest measured viability); higher = less toxic
HepG2 [7] = assay: as above
U2OS [8] = assay: as above
Caco-2 [9] = assay: as above
Calu-3 [10] = assay: as above
Vero E6 [11] = assay: drug sensitivity score (DSS) for viability; higher = more toxic; extreme values may be limits of the assay
HepG2 [12] = assay: as above
U2OS [13] = assay: as above
Caco-2 [14] = assay: as above
Calu-3 [15] = assay: as above

Structure (SMILES) | cell viability (Vero E6 [1]; 1 nM) [%] | cell viability (Vero E6 [1]; 10 nM) [%] | cell viability (Vero E6 [1]; 100 nM) [%] | cell viability (Vero E6 [1]; 1000 nM) [%] | cell viability (Vero E6 [1]; 10000 nM) [%] | cell viability (HepG2 [2]; 1 nM) [%] | cell viability (HepG2 [2]; 10 nM) [%] | cell viability (HepG2 [2]; 100 nM) [%] | cell viability (HepG2 [2]; 1000 nM) [%] | cell viability (HepG2 [2]; 10000 nM) [%] | cell viability (U2OS [3]; 1 nM) [%] | cell viability (U2OS [3]; 10 nM) [%] | cell viability (U2OS [3]; 100 nM) [%] | cell viability (U2OS [3]; 1000 nM) [%] | cell viability (U2OS [3]; 10000 nM) [%] | cell viability (Caco-2 [4]; 1 nM) [%] | cell viability (Caco-2 [4]; 10 nM) [%] | cell viability (Caco-2 [4]; 100 nM) [%] | cell viability (Caco-2 [4]; 1000 nM) [%] | cell viability (Caco-2 [4]; 10000 nM) [%] | cell viability (Calu-3 [5]; 1 nM) [%] | cell viability (Calu-3 [5]; 10 nM) [%] | cell viability (Calu-3 [5]; 100 nM) [%] | cell viability (Calu-3 [5]; 1000 nM) [%] | cell viability (Calu-3 [5]; 10000 nM) [%] | relative viability EC50 (Vero E6 [6]) [µM] | relative viability EC50 (HepG2 [7]) [µM] | relative viability EC50 (U2OS [8]) [µM] | relative viability EC50 (Caco-2 [9]) [µM] | relative viability EC50 (Calu-3 [10]) [µM] | drug sensitivity score (Vero E6 [11]) | drug sensitivity score (HepG2 [12]) | drug sensitivity score (U2OS [13]) | drug sensitivity score (Caco-2 [14]) | drug sensitivity score (Calu-3 [15])
Cc1cccc(C)c1-n1c(=O)c2cnc(Nc3ccc(N4CCN(C)CC4)cc3)nc2n2c3ccccc3nc12 [TC-S-7003] | 96.9 | 97.4 | 71.7 | 54.6 | 10.6 | 98 | 101 | 82 | 58.6 | 9 | 97 | 98.2 | 91.8 | 56.5 | 0.4 | 88.3 | 87.9 | 88.3 | 66.1 | 11.6 | 106 | 101 | 95.6 | 70.5 | 5.2 | 0.527 | 0.915 | 1.15 | 1.31 | 1.4 | 12.6 | 10.5 | 10.5 | 8.7 | 9.4
C[N+]1([O-])[C@@H]2CC[C@H]1C[C@@H](OC(=O)C(CO)c1ccccc1)C2 (stereo not given in full) [atropine-oxide] | 88.2 | 103 | 102 | 111 | 95.5 | 88 | 99.2 | 95.8 | 98.6 | 94.5 | 97.4 | 107 | 101 | 102 | 96.5 | 84 | 96.6 | 99.3 | 90.2 | 93.9 | 97.6 | 93.3 | 98.6 | 94.4 | 102 | > 10 | > 10 | > 10 | > 10 | > 10 | 0 | 0 | 0 | 0 | 0
O=C(O)c1ccc(O)c2ncccc12 [IOX1] | 98 | 92.3 | 103 | 101 | 106 | 110 | 90.1 | 87.4 | 101 | 94.7 | 99.9 | 100 | 100 | 103 | 99.7 | 89 | 97.7 | 97.6 | 104 | 102 | 97.6 | 99.5 | 98.2 | 105 | 86.7 | > 10 | > 10 | > 10 | > 10 | > 10 | 0 | 0 | 0 | 0 | 0
COC1=C[C@@H]2[C@@H]3Cc4ccc(OC)c(O)c4[C@]2(CCN3C)CC1=O [sinomenine] | 105 | 97.7 | 103 | 97 | 105 | 109 | 104 | 99.2 | 88.5 | 96.3 | 94.1 | 98.5 | 98.8 | 104 | 94.3 | 107 | 96.9 | 90.5 | 98.8 | 104 | 100 | 95.4 | 100 | 92.4 | 95.8 | > 10 | > 10 | > 10 | > 10 | > 10 | 0 | 0.4 | 0 | 0 | 0
Cc1cc(N2CCN([C@@H]3CN[C@H](C(=O)N4CCSC4)C3)CC2)n(-c2ccccc2)n1 [teneligliptin] | 104 | 98.9 | 101 | 99.2 | 98.2 | 101 | 106 | 98.4 | 97 | 94.7 | 95.8 | 101 | 99.5 | 100 | 98.3 | 104 | 97.9 | 94.3 | 101 | 90 | 104 | 108 | 92.6 | 91.9 | 102 | > 10 | > 10 | > 10 | > 10 | > 10 | 0 | 0 | 0 | 0 | 0
CCC1(c2ccccc2)C(=O)NCNC1=O [primidone] | 94.5 | 95.1 | 92 | 92.2 | 95.3 | 112 | 78.9 | 89.4 | 84.9 | 96.3 | 102 | 98.3 | 101 | 102 | 107 | 93.1 | 100 | 84.5 | 101 | 115 | 102 | 94.8 | 105 | 94.1 | 114 | > 10 | > 10 | > 10 | > 10 | > 10 | 0 | 0.2 | 0 | 0 | 0
C[C@H](NCc1ccc(OCc2ccccc2F)cc1)C(N)=O [priralfinamide] | 99.5 | 95.3 | 99.4 | 92.3 | 91.7 | 98 | 87.3 | 98.5 | 97.4 | 93.6 | 99.2 | 102 | 96.5 | 99.6 | 97.6 | 97.8 | 104 | 91.6 | 95 | 91.2 | 103 | 95.2 | 105 | 91.5 | 99.5 | > 10 | > 10 | > 10 | > 10 | > 10 | 0 | 0 | 0 | 0 | 0
